According to patent US20250098679A1, “HERBICIDAL PYRIDONE DERIVATIVES” (SYNGENTA CROP PROTECTION AG, priority 2021, published 2025):

Legend:
Type in all cases: in vivo
Conditions in all cases: evaluated after 13 days
Setaria faberi (SETFA) [1] = assay: Pre-emergence Test, Setaria faberi (SETFA)
[2] = system: Echinochloa crus-galli (ECHCG); assay: Pre-emergence Test, Echinochloa crus-galli (ECHCG)
Zea mays (ZEAMX) [3] = assay: Pre-emergence Test, Zea mays (ZEAMX)
[4] = system: Ipomoea hederacea (IPOHE); assay: Pre-emergence Test, Ipomoea hederacea (IPOHE)
[5] = system: Amaranthus palmeri (AMAPA); assay: Pre-emergence Test, Amaranthus palmeri (AMAPA)
[6] = system: Amaranthus retoflexus (AMARE); assay: Pre-emergence Test, Amaranthus retoflexus (AMARE)
Setaria faberi (SETFA) [7] = assay: Post-emergence Test, Setaria faberi (SETFA); design: key to percentage damage caused to the plant, SETFA (five-point scale): 5=81-100%, 4=61-80%, 3=41-60%, 2=21-40%, 1=0-20% damage
Summary of the method: (§1)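 Tested at 1000 g/ha unless otherwise stated. Plants were held at 24/16 °C day/night with a 14 h light period. Percent damage was read at 13 days and reported in five bands.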

[8] = system: Echinochloa crus-galli (ECHCG); assay: Post-emergence Test, Echinochloa crus-galli (ECHCG); design: key to percentage damage caused to the plant, ECHCG (five-point scale): 5=81-100%, 4=61-80%, 3=41-60%, 2=21-40%, 1=0-20% damage
Summary of the method: as §1

Zea mays (ZEAMX) [9] = assay: Post-emergence Test, Zea mays (ZEAMX); design: key to percentage damage caused to the plant, ZEAMX (five-point scale): 5=81-100%, 4=61-80%, 3=41-60%, 2=21-40%, 1=0-20% damage
Summary of the method: as §1

[10] = system: Ipomoea hederacea (IPOHE); assay: Post-emergence Test, Ipomoea hederacea (IPOHE); design: key to percentage damage caused to the plant, IPOHE (five-point scale): 5=81-100%, 4=61-80%, 3=41-60%, 2=21-40%, 1=0-20% damage
Summary of the method: as §1

[11] = system: Amaranthus palmeri (AMAPA); assay: Post-emergence Test, Amaranthus palmeri (AMAPA); design: key: 5=81-100%, 4=61-80%, 3=41-60%, 2=21-40%, 1=0-20% damage
Summary of the method: as §1

[12] = system: Amaranthus retoflexus (AMARE); assay: Post-emergence Test, Amaranthus retoflexus (AMARE); design: key to percentage damage caused to the plant, AMARE (five-point scale): 5=81-100%, 4=61-80%, 3=41-60%, 2=21-40%, 1=0-20% damage
Summary of the method: as §1

| SMILES | Pre-emergence Test SETFA, percentage damage caused to the plant (five-point scale) (Setaria faberi (SETFA) [1]; 250 g/Ha (*)) | Pre-emergence Test SETFA, percentage damage caused to the plant (five-point scale) (Setaria faberi (SETFA) [1]; 1000 g/ha) | Pre-emergence Test ECHCG, percentage damage caused to the plant (five-point scale) ([2]; 250 g/Ha (*)) | Pre-emergence Test ECHCG, percentage damage caused to the plant (five-point scale) ([2]; 1000 g/ha) | Pre-emergence Test ZEAMX, percentage damage caused to the plant (five-point scale) (Zea mays (ZEAMX) [3]; 250 g/Ha (*)) | Pre-emergence Test ZEAMX, percentage damage caused to the plant (five-point scale) (Zea mays (ZEAMX) [3]; 1000 g/ha) | Pre-emergence Test IPOHE, percentage damage caused to the plant (five-point scale) ([4]; 250 g/Ha (*)) | Pre-emergence Test IPOHE, percentage damage caused to the plant (five-point scale) ([4]; 1000 g/ha) | Pre-emergence Test AMAPA, percentage damage caused to the plant (five-point scale) ([5]; 250 g/Ha (*)) | Pre-emergence Test AMAPA, percentage damage caused to the plant (five-point scale) ([5]; 1000 g/ha) | Pre-emergence Test AMARE, percentage damage caused to the plant (five-point scale) ([6]; 250 g/Ha (*)) | Pre-emergence Test AMARE, percentage damage caused to the plant (five-point scale) ([6]; 1000 g/ha) | percentage damage caused to the plant, SETFA (five-point scale) (Setaria faberi (SETFA) [7]; 1000 g/ha) | percentage damage caused to the plant, ECHCG (five-point scale) ([8]; 1000 g/ha) | percentage damage caused to the plant, SETFA (five-point scale) (Setaria faberi (SETFA) [7]; 250 g/Ha) | percentage damage caused to the plant, ECHCG (five-point scale) ([8]; 250 g/Ha) | percentage damage caused to the plant, ZEAMX (five-point scale) (Zea mays (ZEAMX) [9]; 250 g/Ha) | percentage damage caused to the plant, IPOHE (five-point scale) ([10]; 250 g/Ha) | percentage damage caused to the plant, AMAPA (five-point scale) ([11]; 250 g/Ha) | percentage damage caused to the plant, AMARE (five-point scale) ([12]; 250 g/Ha) | other results |
| --- | --- | --- | --- | --- | --- | --- | --- | --- | --- | --- | --- | --- | --- | --- | --- | --- | --- | --- | --- | --- | --- |
| C=CCOc1ccn(Cc2cc(=O)c(C(=O)O)c(-c3ccc(Cl)c(Cl)c3)n2CC)n1 [Compound 163, 6-[(3-allyloxypyrazol-1-yl)methyl]-2-(3,4-dichlorophenyl)-1-ethyl-4-oxo-pyridine-3-carboxylic acid] | 0 | 3 (3=41-60%) | 1 (1=0-20%) | 4 (4=61-80%) | 0 | 2 (2=21-40%) | 1 (1=0-20%) | 3 (3=41-60%) | 0 | 0 | 0 | 0 | 4 (4=61-80%) | 3 (3=41-60%) |  |  |  |  |  |  | percentage damage caused to the plant, ZEAMX (five-point scale) (Zea mays (ZEAMX) [9]; 1000 g/ha): 1 (1=0-20%); percentage damage caused to the plant, IPOHE (five-point scale) ([10]; 1000 g/ha): 2 (2=21-40%); percentage damage caused to the plant, AMAPA (five-point scale) ([11]; 1000 g/ha): 1 (1=0-20%); percentage damage caused to the plant, AMARE (five-point scale) ([12]; 1000 g/ha): 1 (1=0-20%) |
| Cn1c(Cn2ccc(C(F)(F)F)n2)cc(=O)c(C(=O)O)c1-c1ccc(Cl)c(Cl)c1 [Compound 33, 2-(3,4-dichlorophenyl)-1-methyl-4-oxo-6-[[3-(trifluoromethyl)pyrazol-1-yl]methyl]pyridine-3-carboxylic acid] |  | 5 (5=81-100%) |  | 5 (5=81-100%) |  | 0 |  | 0 |  | 3 (3=41-60%) |  | 0 | 4 (4=61-80%) | 4 (4=61-80%) | 3 (3=41-60%) | 3 (3=41-60%) | 1 (1=0-20%) | 4 (4=61-80%) | 1 (1=0-20%) | 1 (1=0-20%) | percentage damage caused to the plant, ZEAMX (five-point scale) (Zea mays (ZEAMX) [9]; 1000 g/ha): 2 (2=21-40%); percentage damage caused to the plant, IPOHE (five-point scale) ([10]; 1000 g/ha): 3 (3=41-60%); percentage damage caused to the plant, AMAPA (five-point scale) ([11]; 1000 g/ha): 2 (2=21-40%); percentage damage caused to the plant, AMARE (five-point scale) ([12]; 1000 g/ha): 3 (3=41-60%) |
| CCn1c(Cn2ncc(Cl)c2C2CC2)cc(=O)c(C(=O)O)c1-c1ccc(Cl)c(Cl)c1 [Compound 93, 6-[(4-chloro-5-cyclopropyl-pyrazol-1-yl)methyl]-2-(3,4-dichlorophenyl)-1-ethyl-4-oxo-pyridine-3-carboxylic acid] | 0 |  | 0 |  | 0 |  | 0 |  | 2 (2=21-40%) |  | 1 (1=0-20%) |  |  |  | 1 (1=0-20%) | 2 (2=21-40%) | 1 (1=0-20%) | 1 (1=0-20%) | 1 (1=0-20%) | 1 (1=0-20%) |  |
| Cn1c(Cn2ccc(Cl)n2)cc(=O)c(C(=O)O)c1-c1ccc(Cl)c(Cl)c1 [Compound 34, 6-[(3-chloropyrazol-1-yl)methyl]-2-(3,4-dichlorophenyl)-1-methyl-4-oxo-pyridine-3-carboxylic acid] |  | 5 (5=81-100%) |  | 5 (5=81-100%) |  | 0 |  | 0 |  | 1 (1=0-20%) |  | 0 | 4 (4=61-80%) | 4 (4=61-80%) | 3 (3=41-60%) | 2 (2=21-40%) | 1 (1=0-20%) | 4 (4=61-80%) | 1 (1=0-20%) | 1 (1=0-20%) | percentage damage caused to the plant, ZEAMX (five-point scale) (Zea mays (ZEAMX) [9]; 1000 g/ha): 2 (2=21-40%); percentage damage caused to the plant, IPOHE (five-point scale) ([10]; 1000 g/ha): 4 (4=61-80%); percentage damage caused to the plant, AMAPA (five-point scale) ([11]; 1000 g/ha): 3 (3=41-60%); percentage damage caused to the plant, AMARE (five-point scale) ([12]; 1000 g/ha): 1 (1=0-20%) |
| CCn1c(Cn2ccc(C(F)F)n2)cc(=O)c(C(=O)O)c1-c1ccc(Cl)c(Cl)c1 [Compound 186] | 5 (5=81-100%) | 5 (5=81-100%) | 4 (4=61-80%) | 5 (5=81-100%) | 0 | 3 (3=41-60%) | 2 (2=21-40%) | 4 (4=61-80%) | 0 | 1 (1=0-20%) | 0 | 2 (2=21-40%) | 4 (4=61-80%) | 4 (4=61-80%) | 4 (4=61-80%) | 4 (4=61-80%) | 1 (1=0-20%) | 4 (4=61-80%) | 2 (2=21-40%) | 1 (1=0-20%) | percentage damage caused to the plant, ZEAMX (five-point scale) (Zea mays (ZEAMX) [9]; 1000 g/ha): 1 (1=0-20%); percentage damage caused to the plant, IPOHE (five-point scale) ([10]; 1000 g/ha): 4 (4=61-80%); percentage damage caused to the plant, AMAPA (five-point scale) ([11]; 1000 g/ha): 2 (2=21-40%); percentage damage caused to the plant, AMARE (five-point scale) ([12]; 1000 g/ha): 3 (3=41-60%) |
| CCn1c(Cn2ccc(F)n2)cc(=O)c(C(=O)O)c1-c1ccc(Cl)c(Cl)c1 [Compound 36, 2-(3,4-dichlorophenyl)-1-ethyl-6-[(3-fluoropyrazol-1-yl)methyl]-4-oxo-pyridine-3-carboxylic acid] | 4 (4=61-80%) |  | 3 (3=41-60%) |  | 0 |  | 0 |  | 2 (2=21-40%) |  | 1 (1=0-20%) |  |  |  | 4 (4=61-80%) | 3 (3=41-60%) | 2 (2=21-40%) | 4 (4=61-80%) | 1 (1=0-20%) | 2 (2=21-40%) |  |
